Data reported in PubChem BioAssay (NCI).
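Assay format: 96-well plates, 48-hour exposure. The concentration for full growth arrest is given as TGI.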

Key:
Assay in all cases: NCI anticancer screen, dose series, 48 h
NCI/ADR-RES ovarian = system: NCI/ADR-RES ovarian
ACHN renal = system: ACHN renal
U251 CNS = system: U251 CNS
MDA-N = system: MDA-N
M14 melanoma = system: M14 melanoma
T-47D breast = system: T-47D breast
SF-539 CNS = system: SF-539 CNS
HOP-62 NSCLC = system: HOP-62 NSCLC
PC-3 prostate = system: PC-3 prostate
SK-MEL-28 melanoma = system: SK-MEL-28 melanoma
HL-60(TB) leukemia = system: HL-60(TB) leukemia

In the case of `CCS(=O)C(=O)N(O)c1ccc(Cl)cc1` (configuration not stated), the TGI (NCI/ADR-RES ovarian) is reported as 81.4 µM, the TGI (ACHN renal) is reported as 55 µM and the TGI (U251 CNS) is reported as 44.6 µM. The TGI (MDA-N) was 41.4 µM, the TGI (M14 melanoma) was 35.1 µM and the TGI (T-47D breast) was > 100 µM. The TGI (SF-539 CNS) was 52.8 µM, the TGI (HOP-62 NSCLC) was > 100 µM and the TGI (PC-3 prostate) was > 100 µM. It also gave a TGI (SK-MEL-28 melanoma) of 35.6 µM.

With `CC(=O)OI1NC(=O)c2ccccc21` the TGI (NCI/ADR-RES ovarian) was > 100 µM, the TGI (ACHN renal) was > 100 µM and the TGI (U251 CNS) was > 100 µM. For the same compound, the TGI (MDA-N) was > 100 µM, the TGI (M14 melanoma) was > 100 µM and the TGI (HL-60(TB) leukemia) was > 100 µM. The TGI (HOP-62 NSCLC) was > 100 µM, the TGI (PC-3 prostate) was > 100 µM and the TGI (SK-MEL-28 melanoma) was > 100 µM.

For `COc1ccc2[nH]c3c(c2c1)[C@H](c1ccccc1)C[C@@H]1C(=O)N(c2ccccc2)C(=O)[C@H]31`, the TGI (ACHN renal) was 42.9 µM, the TGI (U251 CNS) was 38.3 µM and the TGI (M14 melanoma) was > 100 µM. For the same compound, the TGI (SF-539 CNS) was > 100 µM, the TGI (HOP-62 NSCLC) was 48.8 µM and the TGI (SK-MEL-28 melanoma) was > 100 µM.

`CCc1n[nH]c(=O)n1CCCCCCCCn1c(CC)n[nH]c1=O` was tested, and the TGI (NCI/ADR-RES ovarian) was > 100 µM, the TGI (ACHN renal) was > 100 µM and the TGI (U251 CNS) was > 100 µM. For the same compound, the TGI (MDA-N) was > 100 µM, the TGI (M14 melanoma) was > 100 µM and the TGI (T-47D breast) was > 100 µM. For the same compound, the TGI (SF-539 CNS) was > 100 µM, the TGI (HOP-62 NSCLC) was > 100 µM and the TGI (PC-3 prostate) was > 100 µM.

With `CN(C)CCN(C)P12(Oc3ccccc3O1)Oc1c(Cl)c(Cl)c(Cl)c(Cl)c1O2` the TGI (NCI/ADR-RES ovarian) was > 100 µM, the TGI (ACHN renal) was > 100 µM and the TGI (U251 CNS) was > 100 µM. The TGI (MDA-N) was > 100 µM, the TGI (M14 melanoma) was > 100 µM and the TGI (T-47D breast) was > 100 µM. For the same compound, the TGI (HL-60(TB) leukemia) was 40.9 µM, the TGI (HOP-62 NSCLC) was > 100 µM and the TGI (PC-3 prostate) was > 100 µM. The TGI (SK-MEL-28 melanoma) was > 100 µM.

For `N#CC(NNC(=O)Cc1ccccc1)c1cccc(O)c1` (configuration not stated), the TGI (ACHN renal) was > 100 µM, the TGI (U251 CNS) was > 100 µM and the TGI (M14 melanoma) was > 100 µM. The TGI (HL-60(TB) leukemia) was > 100 µM, the TGI (SF-539 CNS) was > 100 µM and the TGI (HOP-62 NSCLC) was > 100 µM. For the same compound, the TGI (SK-MEL-28 melanoma) was > 100 µM.

In the case of `CSc1nc(=S)[nH]c2c1c(C)nn2-c1ccccc1`, the TGI (ACHN renal) is reported as 57.5 µM, the TGI (U251 CNS) is reported as > 100 µM and the TGI (MDA-N) is reported as > 100 µM. The TGI (M14 melanoma) was > 100 µM, the TGI (T-47D breast) was 62.5 µM and the TGI (HL-60(TB) leukemia) was > 100 µM. For the same compound, the TGI (SF-539 CNS) was 98.2 µM, the TGI (HOP-62 NSCLC) was > 100 µM and the TGI (PC-3 prostate) was 68.3 µM. For the same compound, the TGI (SK-MEL-28 melanoma) was > 100 µM.

In the case of `Nc1nc(NNc2cccc(F)c2)cc(=O)[nH]1`, the TGI (NCI/ADR-RES ovarian) is reported as > 100 µM, the TGI (ACHN renal) is reported as > 100 µM and the TGI (U251 CNS) is reported as 42.9 µM. For the same compound, the TGI (M14 melanoma) was > 100 µM, the TGI (HL-60(TB) leukemia) was 59.3 µM and the TGI (SF-539 CNS) was > 100 µM. For the same compound, the TGI (HOP-62 NSCLC) was 58.5 µM, the TGI (PC-3 prostate) was 59.7 µM and the TGI (SK-MEL-28 melanoma) was > 100 µM.

`Cc1cc2ncn(-c3nc4ccccc4nc3C(C#N)S(C)(=O)=O)c2cc1C` (configuration not stated) was tested, and the TGI (ACHN renal) was > 100 µM, the TGI (U251 CNS) was > 100 µM and the TGI (M14 melanoma) was > 100 µM. For the same compound, the TGI (HL-60(TB) leukemia) was > 100 µM, the TGI (SF-539 CNS) was > 100 µM and the TGI (HOP-62 NSCLC) was > 100 µM. The TGI (SK-MEL-28 melanoma) was > 100 µM.

With `CN(C)c1ccc(/C=C/C(=O)c2ccc(O)cc2)cc1` the TGI (NCI/ADR-RES ovarian) was > 40.6 µM, the TGI (ACHN renal) was 61.3 µM and the TGI (U251 CNS) was > 42 µM. The TGI (M14 melanoma) was > 100 µM, the TGI (T-47D breast) was 57.6 µM and the TGI (HL-60(TB) leukemia) was 5.57 µM. The TGI (SF-539 CNS) was 13.5 µM, the TGI (HOP-62 NSCLC) was > 100 µM and the TGI (PC-3 prostate) was 63.2 µM. The TGI (SK-MEL-28 melanoma) was > 100 µM.

With `C1CNOCCCONCCCNOCCCONC1` the TGI (NCI/ADR-RES ovarian) was > 100 µM, the TGI (ACHN renal) was > 100 µM and the TGI (U251 CNS) was > 100 µM. For the same compound, the TGI (MDA-N) was > 100 µM, the TGI (M14 melanoma) was > 100 µM and the TGI (T-47D breast) was 44.4 µM. The TGI (HL-60(TB) leukemia) was > 100 µM, the TGI (HOP-62 NSCLC) was > 100 µM and the TGI (PC-3 prostate) was 86 µM. The TGI (SK-MEL-28 melanoma) was > 100 µM.
